Source: patent US20240002467A1, “COMPOSITIONS AND METHODS OF INHIBITING THE BINDING OF PLASMA IGG AUTOANTIBODIES TO SEROTONIN 2A RECEPTOR” (UNITED STATES GOVERNMENT AS REPRESENTED BY THE DEPARTMENT …, priority 2020, published 2024)
Several values for one entry are separate records, joined by “and”; a condition that tells them apart may be missing. Equal values may be shown once. Ends that are not written are not given here. * marks the point of attachment. Myristoyl = CCCCCCCCCCCCCC(=O)*

Tests used:
[1] = Solubility in water on reconstitution; assay type: physicochemical; settings: compared with unconjugated peptide; reconstituted in DMSO first
Protocol: Synthetic peptides. The peptides were synthesized at Lifetein Inc. (Hillborough, NJ). The lyophilized peptides were aliquoted and stored (in the presence of desiccant) at −40° C. prior to use. On the day of intraperitoneal (IP) administration, an aliquot of lyophilized unconjugated peptide was reconstituted in sterile saline at the appropriate concentration of 2 mg/kg. Reconstituted peptide was prepared fresh before each injection. […] The final concentration of DMSO in sterile saline was 10%. The vehicle, DMSO in sterile saline, was tested independently and had no effect on blood pressure when administered as an IP injection.

[2] = tested on: male Zucker diabetic fatty rats; test: Tail cuff blood pressure in male ZDF rats after IP peptide; assay type: in vivo, rat; settings: for systolic blood pressure-lowering at 4 hours post-administration vs baseline: Experiment 2: two male ZDF rats; for Acute Peak diastolic blood pressure-lowering / Acute Peak mean arterial blood pressure-lowering / Acute Peak systolic blood pressure-lowering / Duration of Action, diastolic BP / Duration of Action, mean arterial BP / Duration of Action, systolic BP: two male ZDF rats
Protocol: Animals. Male ZDF and lean (+/?) Zucker rats were obtained from Charles River Laboratories (Kingston, NY) at approximately 6-7 weeks of age. The rats were single housed upon arrival, without enrichment. Rats were acclimatized for two weeks prior to experimental procedures. Rats were provided ad libitum access to food and water and maintained in a 12 h light/dark cycle with lights on at 0630. The procedures occurred during the light phase of the cycle. Blood pressure testing (following acute or chronic administration of the decoy peptides) was conducted in three separate cohorts of animals.
Cohort 1: Three 25-week-old male ZDF and three, age-matched, male Zucker lean rats (ZLR) treated with IP decoy peptide 2 (ZDF) vs saline (vehicle) (ZLR).
Cohort 2: Eleven-week old male ZDF (n=5) and Zucker lean rats (n=4) treated with IP decoy peptide 2.
Cohort 3: Twelve 8.5-week old male Zucker diabetic fatty rats were randomly assigned to one of three treatment groups (n=4/group). The rats underwent baseline blood pressure determinations using tail-cuff plethysmography technique. Next, the animals who expressed baseline hypertension, i.e., blood pressure >135/85, received either a 1 mg/kg intraperitoneal injection of pegylated decoy peptide 2 (n=3); a 2 mg/kg intraperitoneal dose of a scrambled decoy peptide 2 (n=4); or vehicle (i.e., sterile saline) (N=4). Blood pressure was determined at 15 minutes, 45 minutes, 4 hours, 8 hours, 24 hours, 30 and 48 hours following single IP injection. One week later, the same two groups of ZDF rats received either 0.75 mg/kg IP pegylated decoy peptide 2, 2 mg/kg scrambled decoy peptide 2, or sterile saline; and blood pressure was determined at similar timepoints. Two weeks later, two groups of 12-week-old ZDF rats (n=6/group) including those that had previously received acute peglyated decoy peptide 2 or scrambled decoy peptide 2 were treated on an alternative daily schedule with IP, free decoy peptide 2 (2 mg/kg) vs IP scrambled decoy peptide 2 (2 mg/kg) continuously for 13 weeks until sacrifice at 25 weeks of age. Body weight was determined immediately before sacrifice and after perfusion; and hearts were excised and weighed for determination of the heart-to-(perfused) body weight ratio.
Blood pressure monitoring. Tail cuff blood pressure measurement was performed using an automated CODA noninvasive blood pressure system (Kent Scientific, Torrington, CT). Rats were placed on an insulated warming platform in a well-heated room to ensure proper body temperature. Cuff monitors were provided in different sizes to accommodate rats of different ages and having different body weights. After the animal was positioned in the clear plastic restraint holder, the appropriate-sized cuff was slid over the rat's tail.
Statistical Analysis. Comparisons were made using Student's unpaired t-test (Tables 3-6, 9 and FIG. 18) or time series analysis (Tables 7, 8, FIG. 16).
Blood pressure monitoring. Tail cuff blood pressure measurement was performed using an automated CODA noninvasive blood pressure system (Kent Scientific, Torrington, CT.). Rats were placed on an insulated warming platform in a well-heated room to ensure proper body temperature. Cuff monitors were provided in different sizes to accommodate rats of different ages and having different body weights. After the animal was positioned in the clear plastic restraint holder, the appropriate-sized cuff was slid over the rat's tail.
Experiment 1: Four 12-week-old male ZDF rats were randomly assigned to receive either a single IP injection of a scrambled sequence (SEQ ID NO: 7) of Peptide ID #2 (SEQ ID NO: 2) at 1 mg/kg concentration or a 1 mg/kg concentration of myristolated Peptide ID #2 (SEQ ID NO: 9). Blood pressure was determined using tail cuff plethysmography (Kent Scientific) at 1, 4, 6, 48 and 72 hours post-injection.
Experiment 2: Six 12-week-old male ZDF rats were assigned to each of three treatment groups (N=2/group). […]

[3] = tested on: male Zucker diabetic fatty rats; test: as above; assay type: in vivo, rat; settings: two 13-week-old male ZDF rats, myristolated 2.5 mg/kg single IP
[4] = tested on: Zucker diabetic fatty rats; test: Observation of side effects / tolerability in ZDF rats
[5] = 11-week-old male ZDF rats (N=4/group), single IP Myr-peptide 2 2 mg/kg vs scrambled 1 mg/kg (reference = 0), over 6 days
[6] = Experiment 1: myristolated 1 mg/kg single IP
[7] = four 11-12-week-old male ZDF rats, single 2 mg/kg IP
[8] = male ZDF rats before single 2 mg/kg IP, unconjugated: two 25-week-old, myristolated: four 11-12-week-old
[9] = male ZDF rats, single 2 mg/kg IP, unconjugated: two 25-week-old, myristolated: four 11-12-week-old
[10] = single 2 mg/kg IP vs 1 mg/kg scrambled
[11] = myristolated 1 mg/kg single IP, listed as Myristolated Peptide 2
[12] = myristolated 1.5 mg/kg single IP
[13] = myristolated 1.5 mg/kg single IP, listed as Myristolated Peptide 2
[14] = myristolated 2.0 mg/kg single IP
[15] = myristolated 2.0 mg/kg single IP, listed as Myristolated Peptide 2
[16] = myristolated 2.5 mg/kg single IP
[17] = myristolated 2.5 mg/kg single IP, listed as Myr Peptide 2
[18] = myristolated 2.5 mg/kg single IP, listed as Myristolated Peptide 2

Myr-SCLLADDN (Myristoyl-SCLLADDN) [myristolated Peptide ID 2]
solubility in water, in words [1]: lower solubility in water | Estimate: diastolic blood pressure lowering effect vs scrambled peptide (time series) [2, 5]: −12.0471 | Estimate: systolic blood pressure lowering effect vs scrambled peptide (time series) [2, 5]: −17.4393 | effect on diastolic blood pressure, in words ([2]; Experiment 1: male ZDF rats (N=2/group), 1 mg/kg single IP): rapid-onset diastolic blood pressure lowering | effect on systolic blood pressure, in words [2, 6]: significantly lower at 1, 4, 6 hours and 48 hours post-baseline, but not at 72 hours | time span of significantly reduced mean arterial blood pressure [2, 6]: 1 to 72 h | persistence of systolic blood pressure-lowering ([2]; Experiment 2: myristolated 1 mg/kg IP, one value per rat): 48 to 72 h and 96 to 168 h | persistence of declines in diastolic and mean arterial blood pressure ([2]; Experiment 2: myristolated 1 mg/kg IP, rat 1 / rat 2): 2 to 3 days and 4 to 7 days | persistence of systolic blood pressure-lowering ([2]; Experiment 2: myristolated 1.5 mg/kg IP): up to 168 hours | persistence of blood pressure-lowering ([2]; Experiment 2: myristolated 1.5 mg/kg IP, both rats): up to 7 days | systolic blood pressure-lowering at 4 hours post-administration vs baseline ([2]; myristolated 1 mg/kg IP): 8-11% | systolic blood pressure-lowering at 4 hours post-administration vs baseline ([2]; myristolated 1.5 mg/kg IP): 13% | mean diastolic BP, 72 hours [2, 7]: 80 | mean diastolic BP, 6 days [2, 7]: 85 | mean diastolic BP, 7 days [2, 7]: 94 | mean systolic BP, 72 hours [2, 7]: 126 | mean systolic BP, 6 days [2, 7]: 127 | mean systolic BP, 7 days [2, 7]: 142 | mean diastolic BP, Baseline [2, 8]: 97 | mean systolic BP, Baseline [2, 8]: 146 | mean diastolic BP, 24 hours [2, 9]: 76 | mean diastolic BP, 48 hours [2, 9]: 82 | mean systolic BP, 24 hours [2, 9]: 117 | mean systolic BP, 48 hours [2, 9]: 123 | duration of blood pressure lowering ([2]; male ZDF rats, single IP 2 mg/kg, myristic acid conjugated): ≥ 6 days | mean lowering in diastolic blood pressure compared to scrambled Peptide 2 [2, 10]: 12 mm Hg | mean lowering in systolic blood pressure compared to scrambled Peptide 2 [2, 10]: 17.4 mm Hg | blood pressure-lowering effects, in words ([2]; single IP doses ranging from 1.0-2.5 mg/kg): potent, dose-dependent, and in many cases unexpectedly quite long-lasting | time until systolic and diastolic blood pressure returned to baseline ([2]; two 13-week-old male ZDF rats, myristolated 2.5 mg/kg single IP): 9 days | Acute Peak diastolic blood pressure-lowering ([2]; myristolated 1 mg/kg single IP): 10-12% | Acute Peak mean arterial blood pressure-lowering ([2]; myristolated 1 mg/kg single IP): 6-8% | Acute Peak systolic blood pressure-lowering ([2]; myristolated 1 mg/kg single IP): 4-10%^ | Duration of Action, diastolic BP ([2]; myristolated 1 mg/kg single IP): 4 to 6 days | Duration of Action, mean arterial BP ([2]; myristolated 1 mg/kg single IP): 4 to 6 days | Acute Peak diastolic blood pressure-lowering [2, 11]: 10-12% | Acute Peak mean arterial blood pressure-lowering [2, 11]: 6-8% | Duration of Action, systolic BP [2, 11]: 4 to 7 days and 7 days | Acute Peak diastolic blood pressure-lowering [2, 12]: 11-19% | Acute Peak mean arterial blood pressure-lowering [2, 12]: 14% | Acute Peak systolic blood pressure-lowering [2, 12]: 10% | Duration of Action, diastolic BP [2, 12]: 7 days | Duration of Action, mean arterial BP [2, 12]: 7 days | Duration of Action, systolic BP [2, 12]: 7 days | Acute Peak diastolic blood pressure-lowering [2, 13]: 19% | Acute Peak mean arterial blood pressure-lowering [2, 13]: 14% | Acute Peak diastolic blood pressure-lowering [2, 14]: 22-25% | Acute Peak systolic blood pressure-lowering [2, 14]: 7-15% | Acute Peak mean arterial blood pressure-lowering ([2]; myristolated 2.0 mg/kg single IP, listed as Myr Peptide 2): 14-22% | Acute Peak diastolic blood pressure-lowering [2, 15]: 20-25%. | Acute Peak mean arterial blood pressure-lowering [2, 15]: 14-22% | Acute Peak systolic blood pressure-lowering [2, 15]: 15% | Acute Peak systolic blood pressure-lowering [2, 16]: 20-23% | Duration of Action, diastolic BP [2, 16]: 9 days | Duration of Action, mean arterial BP [2, 16]: 9 days | Duration of Action, systolic BP [2, 16]: 9 days | Acute Peak diastolic blood pressure-lowering [2, 17]: 18-35% | Acute Peak mean arterial blood pressure-lowering [2, 17]: 28-30% | Acute Peak diastolic blood pressure-lowering [2, 18]: 18-36% | Acute Peak mean arterial blood pressure-lowering [2, 18]: 19-30% | Acute Peak systolic blood pressure-lowering [2, 18]: 23% | duration of persistent blood pressure lowering ([3]; listed as myristolated decoy Peptide 2): 9 days | duration of persistent blood pressure lowering ([3]; listed as myristolated decoy peptide 2): 8 days | adverse physical or behavioral effects ([4]; Experiment 1: male ZDF rats, myristolated 1 mg/kg IP): No discernable adverse physical or behavioral effects | untoward physical or behavioral effect ([4]; ten ZDF rats (Expt 1 and 2), up to 14-21 days after single IP): None of the ten rats tested (N=4 in Expt 1; N=6 in Expt 2) experienced any untoward physical or behavioral effect
